Here are results for 5 molecules from US20160338928A1, “SKIN ENGAGING MEMBER COMPRISING A CYCLOHEXANECARBOXAMIDE DERIVATIVE” (The Gillette Company, priority 2015, published 2016).

Each structure is given as a SMILES string.

The conditions of assay [1]: concentration where the cooling effect could be clearly recognized; reported by Emberger and Hopp 1987; cited from earlier work.
Assay [2] addresses T1, human TRPM8 (Homo sapiens, UniProt Q7Z2W7).
T1 construct: expressed in transfected cells
Description: TRPM8 activation, FLIPR calcium flux in HEK cells stably transfected with human TRPM8. The format is cell-based. The note with it: amino acid derived side chain (alanine) in R (28) and S (776) configuration. The procedure:
[…] (human embryonic kidney) cells stably transfected with human TRPM8 are grown in 15 ml growth medium (high glucose DMEM (Dulbecco's Modification of Eagle's Medium) supplemented with 10% FBS (fetal bovine serum), 100 ug/ml penicillin/streptomycin, 5 μg/ml blasticindin, and 100 μg/ml zeocin) in a 75 CM^2 flask for 3 days at 37° C. in a mammalian cell culture incubator set at 5% CO2. Cells are detached with addition of 2 ml of trypsin-EDTA buffer (GIBCO® 25200, Invitrogen) for about 2-3 min. Trypsin is inactivated by addition of 8 ml growth medium. Cells are transferred to a 50 ml tube and centrifuged at 850 rpm for 3 minutes to remove medium. After centrifugation, a pellet of cells is formed in the bottom of the tube separating them from the supernatant solution. […] (Fluo-4 AM is a fluorescent dye used for quantifying cellular Ca^2+ concentrations in the 100 nM to 1 microM range.) At the end of 30 minutes, 45 ml of assay buffer (1×HBSS (Hank's Balanced Salt Solution), 20 mM HEPES (4-(2-Hydroxyethyl)-1-piperazineethanesulfonic acid)) is added to wash cells and the resulting mixture is then centrifuged at 850 rpm for 3 minutes to remove excess buffer and Fluo-4 AM calcium indicator. […]

T1 sequence (Q7Z2W7 whole entry): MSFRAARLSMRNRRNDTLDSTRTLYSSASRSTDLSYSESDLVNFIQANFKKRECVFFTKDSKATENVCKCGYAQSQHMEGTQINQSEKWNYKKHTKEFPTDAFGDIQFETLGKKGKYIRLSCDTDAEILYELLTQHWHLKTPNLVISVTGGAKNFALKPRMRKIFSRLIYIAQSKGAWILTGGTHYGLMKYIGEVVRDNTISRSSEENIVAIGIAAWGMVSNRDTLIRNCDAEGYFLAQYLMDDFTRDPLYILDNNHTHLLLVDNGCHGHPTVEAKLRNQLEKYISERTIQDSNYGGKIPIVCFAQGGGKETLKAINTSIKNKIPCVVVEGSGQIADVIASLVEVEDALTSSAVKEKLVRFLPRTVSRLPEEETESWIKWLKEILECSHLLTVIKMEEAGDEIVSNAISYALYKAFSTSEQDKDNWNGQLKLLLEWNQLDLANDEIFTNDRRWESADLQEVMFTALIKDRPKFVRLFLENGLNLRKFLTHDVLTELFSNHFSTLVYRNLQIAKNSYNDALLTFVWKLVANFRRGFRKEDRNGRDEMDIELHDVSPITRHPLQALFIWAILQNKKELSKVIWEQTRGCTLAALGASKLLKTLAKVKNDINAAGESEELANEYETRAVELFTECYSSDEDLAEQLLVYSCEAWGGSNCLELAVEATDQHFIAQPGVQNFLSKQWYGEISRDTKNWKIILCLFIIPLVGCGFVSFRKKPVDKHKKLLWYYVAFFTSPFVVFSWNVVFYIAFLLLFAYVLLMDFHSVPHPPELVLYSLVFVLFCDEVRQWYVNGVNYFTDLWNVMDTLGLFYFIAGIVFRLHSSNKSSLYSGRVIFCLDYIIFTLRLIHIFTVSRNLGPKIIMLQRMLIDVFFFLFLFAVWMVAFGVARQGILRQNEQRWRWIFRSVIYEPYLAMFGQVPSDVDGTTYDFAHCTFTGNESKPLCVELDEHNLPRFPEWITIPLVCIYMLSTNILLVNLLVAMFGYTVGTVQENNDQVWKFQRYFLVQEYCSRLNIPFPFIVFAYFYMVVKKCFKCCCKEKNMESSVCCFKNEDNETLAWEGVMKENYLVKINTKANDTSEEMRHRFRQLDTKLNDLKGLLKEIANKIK

Consider `CC(C)[C@@H]1CC[C@@H](C)C[C@@H]1O` [d-neomenthol], for which the cooling threshold entry in assay [1] is “about 25,000 ppb”.
Take `CC(C)[C@@H]1CC[C@@H](C)C[C@@H]1O` [Compound 1-neomenthol, 1-neomenthol]: the cooling threshold result in assay [1] is recorded as “about 3,000 ppb”.
As for `CC(C)[C@@H]1CC[C@@H](C)C[C@H]1C(=O)NCC(NC(=O)[C@@H](C)N)c1ccccc1` (some centres unmarked) [Compound 28], in assay [2], the “activity towards the receptor” value is recorded as “excellent activity”.
Take `CC(C)[C@@H]1CC[C@@H](C)C[C@H]1O` [L-menthol]: in assay [1], the cooling threshold result was “about 800 ppb”.
Turning to `COc1ccc(NC(=O)[C@@H]2C[C@H](C)CC[C@H]2C(C)C)c(NC(=O)[C@H](C)N)c1` [Compound 776], in assay [2], the “activity towards the receptor” value is “excellent activity”.
